In patent publication US8278337B2, “Substituted pyridines that are JNK inhibitors” (Merck Sharp & Dohme, priority 2006, dated 2012) one finds IC50 data, which are given here for 54 molecules.

The structures appear in SMILES notation. Where “and” joins values, the source holds several entries; their conditions need not be identical. Equal values may be shown once. A value given as a limit tells only on which side of the number the result lay.

The target in the assay is JNK1 (Homo sapiens, UniProt P45983). Put plainly: DELFIA kinase assay, JNK1. Format: biochemical. The conditions noted are these: DELFIA, biotinylated GST-ATF2 substrate, 10 minute pre-incubation, final ATP 7 uM. As to the method: Assay DELFIA (Dissociation Enhanced Lanthanide Fluorescence Immuno-Assay) Assay:
Before initiation of kinase reactions, compounds were pre-incubated with the enzyme for 10 minutes. Pre-incubation reactions contained 50 mM HEPES pH 7.3, 10 mM MgCl2, 1 mM DTT, 75 mM NaCl, 1 mM EDTA, 1 mM EGTA, 0.01% CHAPS, 2 nM JNK1, 6 ug/mL biotinylated GST-ATF2, 0.1 mg/ml BSA, 5% DMSO and 0-100 μM compound in a total volume of 40 μL. After a 10 minute room temperature pre-incubation, 10 μL of 35 μM ATP was added to start the reaction (final concentration of ATP=7 uM). Reactions were incubated at room temperature for 30 minutes. A small aliquot (10 uL) was taken and quenched by adding into 190 uL of DELFIA Assay buffer containing 100 mM EDTA. The amount of phosphate transferred to biotinylated GST-ATF2 was measured using the Dissociation Enhanced Lanthanide Fluorescence Immuno-assay (DELFIA) from Perkin Elmer according to manufacturers protocol. Briefly, biotinylated GST-ATF2 was captured on streptavidin coated plates for 1 hour, washed twice, then incubated for 1 hour with a 1:1000 dilution of rabbit-anti-phospho-ATF2 antibody and a 1:3500 dilution of Europium-labeled anti-rabbit secondary antibody. Free antibody was removed with six washes, Europium was dissociated from the antibody, and Europium fluorescence was measured using an excitation wavelength of 340 nm and an emission wavelength of 615 nm. JNK2 and JNK3 kinase reactions were carried out similarly, with the exception that the final concentration of ATP was 4 uM and 2 uM, respectively.

Sequence of JNK1 (P45983 whole entry, species assumed): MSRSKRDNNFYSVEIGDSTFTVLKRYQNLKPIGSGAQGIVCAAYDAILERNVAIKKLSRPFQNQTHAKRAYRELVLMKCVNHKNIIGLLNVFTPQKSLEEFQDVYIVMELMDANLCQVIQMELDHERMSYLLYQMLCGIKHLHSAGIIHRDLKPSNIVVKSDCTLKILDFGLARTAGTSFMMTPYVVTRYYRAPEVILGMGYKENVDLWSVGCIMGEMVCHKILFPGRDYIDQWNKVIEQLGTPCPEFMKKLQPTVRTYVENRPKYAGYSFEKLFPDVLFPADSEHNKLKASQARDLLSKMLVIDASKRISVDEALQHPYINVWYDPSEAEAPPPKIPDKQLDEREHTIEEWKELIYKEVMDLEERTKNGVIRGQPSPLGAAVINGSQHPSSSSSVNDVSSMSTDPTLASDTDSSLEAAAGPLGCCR

By IC50 is commonly meant the concentration that gives 50% inhibition. `CC(C)NC(=O)c1cccc(C(=O)NCc2ccc3nc(N)sc3c2)n1` [Compound 5]: the IC50 was in the range of 4 to 97 nM.

For `C[C@@H](CO)NC(=O)c1cccc(C(=O)NCc2ccc3nc(N)sc3c2)n1` [Compound 6], the IC50 lay within 4 to 97 nM.

Molecule `CCC(C)NC(=O)c1cccc(C(=O)NCc2ccc3nc(N)sc3c2)n1` (stereo not drawn) [Compound 7] displayed an IC50 of 4 to 97 nM.

Consider `CC[C@@H](C)NC(=O)c1cccc(C(=O)NCc2ccc3nc(N)sc3c2)n1` [Compound 8], for which the 50% inhibitory concentration (IC50) fell in the range of 4 to 97 nM.

As for `CC[C@@H](CO)NC(=O)c1cccc(C(=O)NCc2ccc3nc(N)sc3c2)n1` [Compound 9], the IC50 lay within 4 to 97 nM.

In turn, `N#Cc1ccccc1N1CCC(NC(=O)c2cccc(C(=O)NCc3ccc4nc(N)sc4c3)n2)CC1` [Compound 10] displayed an IC50 of 4 to 97 nM.

Molecule `Nc1nc2ccc(CNC(=O)c3cccc(C(=O)NC4CCC4)n3)cc2s1` [Compound 11] displayed an IC50 of 4 to 97 nM.

The molecule `Nc1nc2ccc(CNC(=O)c3cccc(C(=O)NC4CCCCC4)n3)cc2s1` [Compound 12] returned an IC50 of 4 to 97 nM.

Consider `CN(C)C(=O)c1cccc(C(=O)NCc2ccc3nc(N)sc3c2)n1` [Compound 13], for which the IC50 was greater than 1000 nM.

Regarding `CCNC(=O)c1cccc(C(=O)NCc2ccc3nc(N)sc3c2)n1` [Compound 14], the IC50 was greater than 1000 nM.

Molecule `Nc1nc2ccc(CNC(=O)c3cccc(C(=O)NCCO)n3)cc2s1` [Compound 15] showed an IC50 greater than 1000 nM.

Molecule `CC(=O)NCCNC(=O)c1cccc(C(=O)NCc2ccc3nc(N)sc3c2)n1` [Compound 16] registered an IC50 greater than 1000 nM.

In turn, `Nc1nc2ccc(CNC(=O)c3cccc(C(=O)NCCCO)n3)cc2s1` [Compound 17] registered an IC50 greater than 1000 nM.

As to `CC(CO)NC(=O)c1cccc(C(=O)NCc2ccc3nc(N)sc3c2)n1` (stereo not drawn) [Compound 18], the IC50 lay in the range of 102 to 959 nM.

In turn, `CC(O)CNC(=O)c1cccc(C(=O)NCc2ccc3nc(N)sc3c2)n1` (stereo not drawn) [Compound 19] had an IC50 greater than 1000 nM.

Regarding `CC(C)C[C@@H](CO)NC(=O)c1cccc(C(=O)NCc2ccc3nc(N)sc3c2)n1` [Compound 20], the IC50 was greater than 1000 nM.

On to `CC(C)C[C@@H](CO)NC(=O)c1cccc(C(=O)NCc2ccc3nc(N)sc3c2)n1` [Compound 21], for which the IC50 lay in the range of 102 to 959 nM.

Turning to `Nc1nc2ccc(CNC(=O)c3cccc(C(=O)N[C@H](CO)Cc4ccccc4)n3)cc2s1` [Compound 22], the IC50 is greater than 1000 nM.

Regarding `Nc1nc2ccc(CNC(=O)c3cccc(C(=O)N[C@H](CO)Cc4ccccc4)n3)cc2s1` [Compound 23], the IC50 is 102 to 959 nM.

`Nc1nc2ccc(CNC(=O)c3cccc(C(=O)NC[C@@H](O)c4ccccc4)n3)cc2s1` [Compound 24]: the IC50 is greater than 1000 nM.

Molecule `Nc1nc2ccc(CNC(=O)c3cccc(C(=O)NC[C@H](O)c4ccccc4)n3)cc2s1` [Compound 25] displayed an IC50 of 102 to 959 nM.

Molecule `Nc1nc2ccc(CNC(=O)c3cccc(C(=O)NCCN4CCOCC4)n3)cc2s1` [Compound 26] gave a half-maximal inhibitory concentration (IC50) greater than 1000 nM.

In the case of `Nc1nc2ccc(CNC(=O)c3cccc(C(=O)NCCc4ccccc4)n3)cc2s1` [Compound 27], the IC50 was greater than 1000 nM.

In turn, `CC(=O)N1CCC(NC(=O)c2cccc(C(=O)NCc3ccc4nc(N)sc4c3)n2)CC1` [Compound 28] had an IC50 of 102 to 959 nM.

In turn, `CN1CCC(NC(=O)c2cccc(C(=O)NCc3ccc4nc(N)sc4c3)n2)CC1` [Compound 29] showed an IC50 greater than 1000 nM.

Take `Nc1nc2ccc(CNC(=O)c3cccc(C(=O)NC4CCN(Cc5ccccc5)CC4)n3)cc2s1` [Compound 30]: the half-maximal inhibitory concentration (IC50) is greater than 1000 nM.

Consider `Nc1nc2ccc(CNC(=O)c3cccc(C(=O)N4CCC(c5cccc(O)c5)C(O)C4)n3)cc2s1` (stereo not drawn) [Compound 31], for which the IC50 is greater than 1000 nM.

Molecule `COC(=O)c1cccc(C2CCN(C(=O)c3cccc(C(=O)NCc4ccc5nc(N)sc5c4)n3)CC2O)c1` (stereo not drawn) [Compound 32] showed an IC50 greater than 1000 nM.

Consider `COC(=O)c1ccc(C2CCN(C(=O)c3cccc(C(=O)NCc4ccc5nc(N)sc5c4)n3)CC2O)cc1` (stereo not drawn) [Compound 33], for which the IC50 is greater than 1000 nM.

`Nc1nc2ccc(CNC(=O)c3cccc(C(=O)N4CCCC(O)C4)n3)cc2s1` (stereo not drawn) [Compound 34] registered a concentration for half-maximal inhibition (IC50) greater than 1000 nM.

As to `Nc1nc2ccc(CNC(=O)c3cccc(C(=O)N4CCC(O)CC4)n3)cc2s1` [Compound 35], the IC50 is greater than 1000 nM.

For the molecule `Nc1nc2ccc(CNC(=O)c3cccc(C(=O)N4CCCCC4CO)n3)cc2s1` (stereo not drawn) [Compound 36], the half-maximal inhibitory concentration (IC50) was greater than 1000 nM.

For `Nc1nc2ccc(CNC(=O)c3cccc(C(=O)N4CCCC(CO)C4)n3)cc2s1` (stereo not drawn) [Compound 37], the half-maximal inhibitory concentration (IC50) is greater than 1000 nM.

Molecule `CCOC(=O)N1CCC(NC(=O)c2cccc(C(=O)N(C)C)n2)CC1` [Compound 38] showed an IC50 greater than 1000 nM.

With `CCNC(=O)c1cccc(C(=O)NC2CCN(C(=O)OCC)CC2)n1` [Compound 39], the IC50 was greater than 1000 nM.

For `CCOC(=O)N1CCC(NC(=O)c2cccc(C(=O)NCCO)n2)CC1` [Compound 40], the half-inhibitory concentration (IC50) was greater than 1000 nM.

As to `CCOC(=O)N1CCC(NC(=O)c2cccc(C(=O)NCC(C)C)n2)CC1` [Compound 41], the IC50 is greater than 1000 nM.

As to `CCOC(=O)N1CCC(NC(=O)c2cccc(C(=O)NCc3ccncc3)n2)CC1` [Compound 42], the IC50 is greater than 1000 nM.

In the case of `CCOC(=O)N1CCC(NC(=O)c2cccc(C(=O)NCc3ccc(S(C)(=O)=O)cc3)n2)CC1` [Compound 43], the IC50 lay within 102 to 959 nM.

The molecule `CCOC(=O)N1CCC(NC(=O)c2cccc(C(=O)NCc3ccc4c(c3)OCO4)n2)CC1` [Compound 44] showed an IC50 of 102 to 959 nM.

`CCOC(=O)N1CCC(NC(=O)c2cccc(C(=O)NCCc3ccccc3)n2)CC1` [Compound 45] yielded an IC50 greater than 1000 nM.

Turning to `Nc1nc2ccc(CNC(=O)c3cccc(C(=O)O)n3)cc2s1` [Compound 46], the IC50 was greater than 1000 nM.

Regarding `CNC(=O)c1cccc(C(=O)NCc2ccc3nc(N)sc3c2)n1` [Compound 47], the IC50 was greater than 1000 nM.

`Nc1nc2ccc(CNC(=O)c3cccc(C(=O)NC4CC4)n3)cc2s1` [Compound 48] came in with an IC50 of 102 to 959 nM.

Molecule `C[C@H](CO)NC(=O)c1cccc(C(=O)NCc2ccc3nc(N)sc3c2)n1` [Compound 49] displayed an IC50 of 102 to 959 nM.

As for `CC(C)[C@H](CO)NC(=O)c1cccc(C(=O)NCc2ccc3nc(N)sc3c2)n1` [Compound 50], the IC50 lay within 102 to 959 nM.

In turn, `Nc1nc2ccc(CNC(=O)c3cccc(C(=O)N[C@H](CO)c4ccccc4)n3)cc2s1` [Compound 51] returned an IC50 of 102 to 959 nM.

`NC(=O)c1cccc(C(=O)NCc2ccc3nc(N)sc3c2)n1` [Compound 52] had an IC50 of 102 to 959 nM.

With `CC(C)(C)NC(=O)c1cccc(C(=O)NCc2ccc3nc(N)sc3c2)n1` [Compound 53], the IC50 lay in the range of 102 to 959 nM.

For `Nc1nc2ccc(CNC(=O)c3cccc(C(=O)N[C@@H](CO)c4ccccc4)n3)cc2s1` [Compound 54], the IC50 was > 1000 nM and 1030 to 10000 nM.

In turn, `CS(=O)(=O)c1ccc(CNC(=O)c2cccc(C(=O)NC3CCN(C(N)=O)CC3)n2)cc1` [Compound 55] showed an IC50 of 102 to 959 nM.

`CCNC(=O)N1CCC(NC(=O)c2cccc(C(=O)NCc3ccc(S(C)(=O)=O)cc3)n2)CC1` [Compound 56] came in with an IC50 greater than 1000 nM.

In turn, `CNC(=S)N1CCC(NC(=O)c2cccc(C(=O)NCc3ccc(S(C)(=O)=O)cc3)n2)CC1` [Compound 57] gave a 50% inhibitory concentration (IC50) of 102 to 959 nM.

In turn, `CS(=O)(=O)c1ccc(CNC(=O)c2cccc(C(=O)NC3CCN(S(C)(=O)=O)CC3)n2)cc1` [Compound 58] displayed an IC50 greater than 1000 nM.
